Entries after “also recorded” stand apart in the source; their conditions may differ. Values belong to the molecule of their own block, whether it stands above or below them.
Key:
[1] = tested on: VLDL, LDL and HDL in human plasma; test: Lipoprotein charge in human plasma incubated with PI or DOTAP vesicles; type: biochemical; conditions: 24 h at 4° C.; for Lipoprotein Surface Charge LDL: no lipid 2.5; for Lipoprotein Surface Charge VLDL: no lipid 5.5; for Lipoprotein Surface Charge HDL: no lipid 11.8
Procedure: Different concentrations as shown below of negatively charged phospholipid (PI) or positively charged phospholipid (DOTAP) were added to human plasma and the surface charge on the lipoproteins was determined. The human plasma was incubated with PI or dioleoyl trimethylammonium-propane (DOTAP) vesicles for 24 h at 4° C. and then electrophoresed on 0.5% agarose. Lipoprotein charge was calculated from electrokinetic analyses.

lipoprotein lipase = target: T1, lipoprotein lipase (Homo sapiens, UniProt P06858); test: Lipid hydrolysis by lipoprotein lipase in plasma enriched with charged lipid; type: biochemical; conditions: not shown
T1 sequence (P06858 28-475): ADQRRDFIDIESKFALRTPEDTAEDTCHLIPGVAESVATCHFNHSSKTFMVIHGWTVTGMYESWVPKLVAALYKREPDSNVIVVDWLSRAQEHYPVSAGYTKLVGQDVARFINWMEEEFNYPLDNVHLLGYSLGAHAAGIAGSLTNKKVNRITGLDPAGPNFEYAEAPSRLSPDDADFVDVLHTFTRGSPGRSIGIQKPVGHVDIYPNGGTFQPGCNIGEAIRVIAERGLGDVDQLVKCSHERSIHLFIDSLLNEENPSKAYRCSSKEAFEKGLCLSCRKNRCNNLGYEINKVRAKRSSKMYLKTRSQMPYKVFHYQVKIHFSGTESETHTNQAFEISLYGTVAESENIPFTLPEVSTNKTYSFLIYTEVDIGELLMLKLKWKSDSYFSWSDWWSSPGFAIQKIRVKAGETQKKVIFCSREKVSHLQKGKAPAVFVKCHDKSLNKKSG
Description: Referring now to FIG. 10, there is shown the effect of lipoprotein charge on hepatic lipase. High density lipoprotein particles were enriched to contain various amounts of anionic or cationic lipids and then characterized as substrates for pure human hepatic lipase. Decreasing the net negative charge on the lipoprotein was associated with a reduction in the lipolytic activity of is hepatic lipase. Lipoprotein charge can also be used to regulate lipoprotein lipase. […] Lipid hydrolysis by hepatic or lipoprotein lipase can therefore be affected by alterations in the charge properties of plasma lipoproteins.

HDL = test: Oral administration of PS: HDL charge in a human subject; type: in vivo
Procedure: Referring now to FIG. 9, there is graphically depicted the results of oral administration of 300 mg of PS to a human subject. Plasma samples were drawn before, and over a 24 hour period after, administration of PS. HDL charge was determined electrokinetically after electrophoresis of the plasma samples on 0.5% agarose. […] Thus, orally administered negatively charged lipids is absorbed intestinally and alters lipoprotein charge in the blood stream.

[2] = tested on: faecal cholesterol output; test: Faecal cholesterol excretion after PI or PC injection; type: in vivo, rabbit; conditions: injection into a rabbit
Procedure: Rabbits are injected with 40 μmol PI or PC vesicles containing 400 μCi […]. Animals are sacrificed at 30 min, and bile is aspirated from the gall bladder. In addition the livers are harvested, homogenized and tissue radioactivity determined. Sterol excretion in the faeces is measured similarly except that faecal cholesterol levels are measured over a time period of 96 hours. Referring now to FIG. 7, there is graphically depicted the effect of PI injection associated with sterol excretion. […] PC injection into a rabbit had no effect on cholesterol excretion, while PI injection enhanced faecal cholesterol output by about 300% at 2 days post injection. The increase in cholesterol output returned to normal by about day 4.

[3] = target: T2, lecithin:cholesterol acyltransferase (LCAT) (Oryctolagus cuniculus, UniProt P53761); test: Plasma cholesterol esterification by LCAT after injection of PC or PI; type: in vivo, rabbit; conditions: after injection of vesicles
T2 construct: endogenous LCAT activity is reduced to about 18% that of normal; from tissue; host or cells: plasma of PI- or PC-injected rabbits
T2 sequence (P53761 25-440): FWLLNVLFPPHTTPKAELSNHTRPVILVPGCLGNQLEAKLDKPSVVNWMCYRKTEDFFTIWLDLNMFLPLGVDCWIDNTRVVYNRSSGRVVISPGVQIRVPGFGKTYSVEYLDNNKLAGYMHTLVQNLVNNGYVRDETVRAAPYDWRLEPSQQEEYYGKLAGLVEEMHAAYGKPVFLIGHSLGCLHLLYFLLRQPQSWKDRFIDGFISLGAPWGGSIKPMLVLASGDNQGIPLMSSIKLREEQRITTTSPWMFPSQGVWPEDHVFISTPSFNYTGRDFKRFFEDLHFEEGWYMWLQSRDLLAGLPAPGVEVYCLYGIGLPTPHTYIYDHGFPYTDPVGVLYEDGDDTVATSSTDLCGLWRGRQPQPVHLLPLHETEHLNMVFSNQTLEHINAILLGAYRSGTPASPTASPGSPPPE
Procedure: Male New Zealand white rabbits (3.5-4.0 kg) are fasted for 12 hours prior to injection and remain fasted until after data for the final time point is taken. Rabbits have free access to water during this time. A catheter is inserted into the marginal ear vein and blood samples are collected into tubes containing 7.5% (K3) EDTA solution at the desired time points. A pre-injection blood sample is taken and the vesicle solution of either PI (n=4), or PC (n=2) or saline (n=1) is injected into the marginal ear vein. A sample of blood is removed at 10, 30 min, 1, 3, 6 and 24 h after the injection. All blood samples are placed on ice and then centrifuged at 3000 rpm for 15 min at 4° C. to separate the plasma. In order to ensure that lecithin:cholesterol acyl transferase (LCAT) is inhibited in the stored plasma, iodoacetamide (150 mM) is added to plasma samples as taught by Guerin et al. (1994). The effect of PI on LCAT activity is examined using plasma samples that are not treated with iodoacetamide. 400 μL aliquots of plasma for each time point are incubated for 30 min with 10 μCi of [^3H]-FC on filter paper discs (Dobiasova et al., 1991) at 37° C. and the reaction is terminated with the addition of 2 mL ethanol. Reaction products are extracted in hexane and the amount of [^3H] associated with CE and FC is determined by thin layer chromatography. […] However, endogenous LCAT activity is reduced to about 18% that of normal (PC injected control) after about 10 min post injection of PI. Also, PI injection reduces the fractional rate of cholesterol esterification from about 45% to about 8%, of initial values, per hour. […] To investigate the effect of PI on the production and transport of CE in the plasma, the amount of radioactive CE was measured at each time point (data not shown). […] Rather it appears that PI may modify intravascular cholesterol levels by mobilizing a cellular cholesterol pool.

[^3H]-FC in plasma = Clearance of [^3H]-FC from the blood of a rabbit; type: in vivo
Procedure: (§1) 1-palmitoyl-2-oleoyl-phosphatidylcholine (PC) and 1-palmitoyl-2-oleoyl phosphatidylinositol (PI) vesicles are prepared by drying to completion 40 μmol of each lipid into a 12×75 mm culture tube under N2. The lipids are solubilized in 3 mL of sterile saline comprising 150 mM sodium chloride (pH 7.2) by sonication for 1 minute at constant duty cycle. The vesicles are incubated at 37° C. for 10 minutes and then sonicated at a high output for 4 minutes in 10° C. water bath under N2. In order to determine the rate of clearance of cholesterol from the test animals (rabbits), a radioactive tracer is added to the vesicle preparations prior to injection into the rabbit. 200 μL of 1 μCi/μmL [^3H]-FC is dried into a 12×75 mm culture tube with 40 μmol of PI or POPC. 3 ml of PBS is added to the dried lipids and the mixture is sonicated as described above. This tracer/vesicle preparation is injected and then 5 min later, the PI or PC vesicles were injected and blood is sampled as described below.
(§2) Male New Zealand white rabbits (3.5-4.0 kg) are fasted for 12 hours prior to injection and remain fasted until after data for the final time point is taken. Rabbits have free access to water during this time. A catheter is inserted into the marginal ear vein and blood samples are collected into tubes containing 7.5% (K3) EDTA solution at the desired time points. A pre-injection blood sample is taken and the vesicle solution of either PI (n=4), or PC (n=2) or saline (n=1) is injected into the marginal ear vein. A sample of blood is removed at 10, 30 min, 1, 3, 6 and 24 h after the injection. All blood samples are placed on ice and then centrifuged at 3000 rpm for 15 min at 4° C. to separate the plasma. In order to ensure that lecithin:cholesterol acyl transferase (LCAT) is inhibited in the stored plasma, iodoacetamide (150 mM) is added to plasma samples as taught by Guerin et al. (1994).
Referring now to FIG. 5, there is shown the clearance of [^3H]-FC at various times after rabbits are injected with [^3H]-FC and either PI or PC vesicles. […] In comparison, rabbits injected with PC contain approximately 90% of the injected radioactivity after 1 h.

HDL, LDL and VLDL = test: Lipoprotein surface charge after injection of PI or PC vesicles into rabbits (agarose gel electrophoresis); type: in vivo, rabbit; conditions: intravenous injection of vesicles, fasted rabbit
Procedure: as §1, §2
Lipoprotein fractions are isolated by sequential ultracentrifugation (VLDL+IDL, d<1.019 g/mL; LDL, d=1.019-1.063 g/mL; and HDL, d=1.063-1.21 g/mL) as known to one of skill in the art, and lipoprotein lipid composition (total cholesterol, free cholesterol (FC), and triglyceride (TG) concentrations) are determined enzymatically using kits from Roche Diagnostic (Laval, PQ). An aliquot of each lipoprotein isolated is dialysed into PBS and its surface charge characteristics were determined by electrophoresis on pre-cast 0.5% agarose gels using the procedure of Sparks and Phillips (1992).
Referring now to FIG. 1, there is illustrated the effect of injection of PI and PC vesicles on the estimated surface potential of HDL, LDL, and VLDL proteins in vivo. […] PC, which is a neutral phospholipid, may also bind to the lipoproteins. However since PC is a neutral phospholipid, no significant change in the migration of the lipoproteins is observed. The increased migratory property of lipoproteins in a gel peaks following injection of PI and returns to normal by about 24 hours. […] Similarly, the VLDL fraction is estimated to have an initial surface potential of about −8.8 mV, which increases to about −11.2 mV after 10 minutes. LDL is estimated to have an initial surface potential of about −3.9 mV, and peaks about 60 min after the PI injection at about −8.0 mV.

Human plasma = test: Plasma clotting time (prothrombin time); type: biochemical; conditions: human plasma incubated with increasing amounts of vesicles, 24 h at 4° C.
Procedure: Referring now to FIG. 11, there is shown the effect of charged lipid on blood coagulation. Human plasma was incubated with various amounts of uncharged vesicles, phosphatidylcholine (PC) or anionic vesicles, phosphatidylinositol (PI), for 24 h at 4° C. Prothrombin time was then measured with the use of a commercially available kit.

[4] = tested on: lipoprotein CE and FC in whole blood (red blood cells); test: Incubation of whole blood with PC or PI vesicles: lipoprotein CE and FC; type: cell-based, human
Procedure: Referring now to FIG. 4, there is graphically depicted the effect of PI or PC vesicles on lipoprotein CE and FC. Incubation of whole blood with PC vesicles results in a 60% increase in the CE content of the lipoproteins, while FC content is reduced by about 10%. […] Negatively charged phospholipids appeared to promote a reciprocal exchange of CE for FC between red blood cells and the lipoprotein particles. […] It has previously been taught that red blood cells cannot store CE and therefore utilize a membrane-bound CE hydrolase to maintain membrane FC levels. Without wishing to be bound by theory, the results therefore indicate that PI stimulates the degradation of lipoprotein CE.

Molecule: CCCCCCCC/C=C\CCCCCCCC(=O)OCC(C[N+](C)(C)C)OC(=O)CCCCCCC/C=C\CCCCCCCC (centres unmarked) [DOTAP, dioleoyl trimethylammonium propane]
- Lipoprotein Surface Charge LDL ([1]; 5 mg/ml): 2.2 -mV
- Lipoprotein Surface Charge VLDL ([1]; 5 mg/ml): 4.6 -mV
- Lipoprotein Surface Charge HDL ([1]; 5 mg/ml): 11.4 -mV
- Lipoprotein Surface Charge LDL ([1]; 10 mg/ml): 1.9 -mV
- Lipoprotein Surface Charge VLDL ([1]; 10 mg/ml): 4.6 -mV
- Lipoprotein Surface Charge HDL ([1]; 10 mg/ml): 11.2 -mV
- Lipoprotein Surface Charge LDL ([1]; 50 mg/ml): 1.9 -mV
- Lipoprotein Surface Charge VLDL ([1]; 50 mg/ml): 4.1 -mV
- Lipoprotein Surface Charge HDL ([1]; 50 mg/ml): 11.0 -mV
- Lipoprotein Surface Charge LDL ([1]; 100 mg/ml): 1.7 -mV
- Lipoprotein Surface Charge VLDL ([1]; 100 mg/ml): 4.1 -mV
- Lipoprotein Surface Charge HDL ([1]; 100 mg/ml): 10.9 -mV
- effect on lipid hydrolysis by lipoprotein lipase (lipoprotein lipase): inhibited lipid hydrolysis

Molecule: phosphatidylserine [PS]
- HDL charge (HDL; by 6 hours after 300 mg oral, from −10.9 mV before, 'over' = more negative): over −12 mV
- HDL charge (HDL; by 24 hours after 300 mg oral): −11.4 mV

- effect on LCAT activity / cholesteryl esterification [3]: No appreciable change
- effect on plasma clotting time (prothrombin time) (Human plasma): no significant effect
Molecule: 1-palmitoyl-2-oleoyl-phosphatidylcholine [PC, reference compound]
- effect on cholesterol excretion [2]: no effect
- [^3H]-FC in plasma, of the initial dose ([^3H]-FC in plasma; after about 1 h): approximately 90%
- time to clear [^3H]-FC to a comparable baseline level ([^3H]-FC in plasma; rabbit, in vivo): > 6 h
- effect on lipoprotein net negative surface charge / migration of HDL, LDL and VLDL into agarose gel (HDL, LDL and VLDL): negligible effect; also recorded: did not significantly affect migration
- increase in CE content of the lipoproteins [4]: 60%
- reduction of lipoprotein FC content [4]: about 10%
